# Source: patent US10106524B2, “2,3,4,5-tetrahydropyridin-6-amine and 3,4-dihydro-2H-pyrrol-5-amine compound inhibitors of beta-secretase” (Janssen Pharmaceutica NV, priority 2015, dated 2018)
# Experiments:
# [1] = target: T1, recombinant BACE1 protein (Homo sapiens, UniProt P56817); assay: BACE1 biochemical FRET based assay - Method 2; details: BACE1 0.04 μg/ml, 450 minutes, 20 μM substrate, pH 5.0; read-out: Biochemical FRET based assay- Method 2 pIC50 (converted)
# T1 construct: recombinant BACE1 protein in a final concentration of 1 μg/ml
# T1 sequence (P56817 46-501): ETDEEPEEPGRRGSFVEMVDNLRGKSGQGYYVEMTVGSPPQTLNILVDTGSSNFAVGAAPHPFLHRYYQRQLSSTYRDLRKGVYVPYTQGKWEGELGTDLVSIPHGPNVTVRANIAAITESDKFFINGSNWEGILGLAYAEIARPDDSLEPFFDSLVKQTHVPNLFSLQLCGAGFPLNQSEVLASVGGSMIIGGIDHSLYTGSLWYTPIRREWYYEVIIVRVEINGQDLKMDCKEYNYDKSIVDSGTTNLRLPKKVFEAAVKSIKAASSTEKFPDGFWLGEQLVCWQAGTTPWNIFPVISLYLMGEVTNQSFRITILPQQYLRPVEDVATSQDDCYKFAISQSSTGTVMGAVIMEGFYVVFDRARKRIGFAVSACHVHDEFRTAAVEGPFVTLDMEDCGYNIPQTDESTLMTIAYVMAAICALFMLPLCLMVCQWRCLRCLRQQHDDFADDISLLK
# From the text: (§1) BACE1 Biochemical FRET Based Assay
# (§2) This assay is a Fluorescence Resonance Energy Transfer Assay (FRET) based assay. The substrate for this assay is an APP derived 13 amino acids peptide that contains the ‘Swedish’ Lys-Met/Asn-Leu mutation of the amyloid precursor protein (APP) beta-secretase cleavage site. This substrate also contains two fluorophores: (7-methoxycoumarin-4-yl) acetic acid (Mca) is a fluorescent donor with excitation wavelength at 320 nm and emission at 405 nm and 2,4-Dinitrophenyl (Dnp) is a proprietary quencher acceptor. […] Upon cleavage by BACE1, the fluorophore Mca is separated from the quenching group Dnp, restoring the full fluorescence yield of the donor. The increase in fluorescence is linearly related to the rate of proteolysis.
# Briefly in a 384-well format recombinant BACE1 protein in a final concentration of 0.04 μg/ml is incubated for 450 minutes at room temperature with 20 μM substrate in incubation buffer (50 mM Citrate buffer pH 5.0, 0.05% PEG) in the presence of compound or DMSO. Next the amount of proteolysis is directly measured by fluorescence measurement (excitation at 320 nm and emission at 405 nm) at different incubation times (0, 30, 60, 90, 120 and 450 min). For every experiment a time curve (every 30 min between 0 min and 120 min) is used to determine the time where we find the lowest basal signal of the high control. The signal at this time (Tx) is used to subtract from the signal at 450 min. Results are expressed in RFU, as difference between T450 and Tx.
# (§3) A best-fit curve is fitted by a minimum sum of squares method to the plot of % Controlmin versus compound concentration. From this an IC50 value (inhibitory concentration causing 50% inhibition of activity) can be obtained.
# [2] = target: T2, recombinant BACE2 protein (Homo sapiens, UniProt Q9Y5Z0); assay: BACE2 biochemical FRET based assay; details: BACE2 0.4 μg/nil, 450 minutes, 10 μM substrate, pH 5.0; read-out: Biochemical FRET based assay pIC50 (BACE2) (converted)
# T2 construct: recombinant BACE2 protein in a final concentration of 0.4 μg/nil
# T2 sequence (Q9Y5Z0 63-518): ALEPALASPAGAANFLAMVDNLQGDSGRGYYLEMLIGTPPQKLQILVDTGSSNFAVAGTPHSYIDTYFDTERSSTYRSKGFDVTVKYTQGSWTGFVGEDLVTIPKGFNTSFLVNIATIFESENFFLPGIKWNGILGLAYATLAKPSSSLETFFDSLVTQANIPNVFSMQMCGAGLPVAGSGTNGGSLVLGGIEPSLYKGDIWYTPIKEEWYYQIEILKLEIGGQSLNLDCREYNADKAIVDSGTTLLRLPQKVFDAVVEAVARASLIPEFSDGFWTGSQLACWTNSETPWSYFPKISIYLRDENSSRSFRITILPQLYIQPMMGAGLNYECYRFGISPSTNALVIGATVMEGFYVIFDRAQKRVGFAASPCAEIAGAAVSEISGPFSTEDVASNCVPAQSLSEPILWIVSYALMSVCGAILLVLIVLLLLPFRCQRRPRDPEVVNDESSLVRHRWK
# From the text: BACE2 Biochemical FRET Based Assay
# as §2, with “assay” for “assay is an APP derived 13 amino acids peptide that”, “the beta-secretase,” for “BACE1,”
# Briefly in a 384-well format recombinant BACE2 protein in a final concentration of […] is incubated for 450 minutes at room temperature with 10 μM substrate in incubation buffer (50 mM Citrate buffer pH 5.0, 0.05% PEG, no DMSO) in the absence or presence of compound. Next the amount of proteolysis is directly measured by fluorescence measurement at T=0 and T=450 (excitation at 320 nm and emission at 405 nm). Results are expressed in RFU (Relative Fluorescence Units), as difference between T450 and T0.
# as §3
# [3] = system: Abeta total produced and secreted by SKNBE2 cells expressing hAPP695; assay: Cellular αLisa assay in SKNBE2 cells - Abeta total; type: cell-based; details: Homo sapiens, incubated for 18 hours, read-out: Cellular αLisa assay in SKNBE2 cells Abeta total pIC50 (converted)
# Protocol: (§4) Cellular αLisa Assay in SKNBE2 Cells
# (§5) In two αLisa assays the levels of Abeta total and Abeta 1-42 produced and secreted into the medium of human neuroblastoma SKNBE2 cells are quantified. The assay is based on the human neuroblastoma SKNBE2 expressing the wild type Amyloid Precursor Protein (hAPP695). The compounds are diluted and added to these cells, incubated for 18 hours and then measurements of Abeta 1-42 and Abeta total are taken. Abeta total and Abeta 1-42 are measured by sandwich αLisa. αLisa is a sandwich assay using biotinylated antibody AbN/25 attached to streptavidin coated beads and antibody Ab4G8 or cAb42/26 conjugated acceptor beads for the detection of Abeta total and Abeta 1-42 respectively. In the presence of Abeta total or Abeta 1-42, the beads come into close proximity. The excitation of the donor beads provokes the release of singlet oxygen molecules that trigger a cascade of energy transfer in the acceptor beads, resulting in light emission. Light emission is measured after 1 hour incubation (excitation at […] and emission at 615 nm).
# as §3
# [4] = system: Abeta 1-42 produced and secreted by SKNBE2 cells expressing hAPP695; assay: Cellular αLisa assay in SKNBE2 cells - Abeta 42; type: cell-based, human; details: Homo sapiens, incubated for 18 hours, read-out: Cellular αLisa assay in SKNBE2 cells Abeta 42 pIC50 (converted)
# Protocol: as §4, §5, §3
# [5] = target: T1, recombinant BACE1 protein; assay: BACE1 biochemical FRET based assay - Method 1; details: BACE1 1 μg/ml, 120 minutes, 10 μm substrate, pH 5.0; read-out: Biochemical FRET based assay - Method 1 pIC50 (converted)
# From the text: as §1, §2
# Briefly in a 384-well format recombinant BACE1 protein in a final concentration of 1 μg/ml is incubated for 120 minutes at room temperature with 10 μm substrate in incubation buffer (40 mM Citrate buffer pH 5.0, 0.04% PEG, 4% DMSO) in the absence or presence of compound. Next the amount of proteolysis is directly measured by fluorescence measurement at T=0 and T=120 (excitation at 320 nm and emission at 405 nm). Results are expressed in RFU (Relative Fluorescence Units), as difference between T120 and T0.
# as §3
IC50 [1],melting point,IC50 [2],IC50 [3],IC50 [4],IC50 [5],SMILES
324 nM,243.4 °C,,,,,"CC1(c2cc(NC(=O)c3ccc(Br)cn3)ccc2F)N=C(N)CC1C(F)(F)F (racemic) [Compound 40, (±)-N-[3-[(2S*,3R*)-5-amino-2-methyl-3-(trifluoromethyl)-3,4-dihydropyrrol-2-yl]-4-fluoro-phenyl]-5-bromo-pyridine-2-carboxamide]"
3.63 nM,205.8 °C,25.7 nM,3.8 nM,4.27 nM,36.3 nM,C[C@@]1(c2cc(NC(=O)c3ccc(C#N)cn3)ccc2F)C[C@@H](C(F)(F)F)CC(N)=N1 [Compound 10]
1150 nM,207.05 °C,537 nM,240 nM,251 nM,,"Cc1nc(C(=O)Nc2ccc(F)c(C3(C)N=C(N)CC3C(F)(F)F)c2)co1 (racemic) [Compound 16, (±)-N-[3-1[(2S*,3R*)-5-amino-2-methyl-3-(trifluoromethyl)-3,4-dihydropyrrol-2-yl]-4-fluoro-phenyl]-2-methyl-oxazole-4-carboxamide]"
6.17 nM,139.83 °C,3.09 nM,24 nM,22.4 nM,38.9 nM,C[C@@]1(c2cc(NC(=O)c3ccn(C(F)F)n3)ccc2F)C[C@@H](C(F)(F)F)CC(N)=N1 [Compound 13]
> 10000 nM,138.66 °C,> 10000 nM,1950 nM,2340 nM,> 30200 nM,"COc1cnc(C(=O)Nc2cccc([C@]3(C)C[C@H](C(F)(F)F)CC(N)=N3)c2)cn1 [Compound 4, N-{3-[(2S,4S)-6-amino-2-methyl-4-(trifluoromethyl)-2,3,4,5-tetrahydropyridin-2-yl]phenyl}-5-methoxypyrazine-2-carboxamide]"
20.4 nM,,132 nM,24 nM,24 nM,32.4 nM,"C[C@@]1(c2cccc(NC(=O)c3ccc(C#N)cn3)c2)C[C@@H](C(F)(F)F)CC(N)=N1 [Compound 7, N-[3-[(2S,4R)-6-amino-2-methyl-4-(trifluoromethyl)-4,5-dihydro-3H-pyridin-2-yl]phenyl]-5-cyano-pyridine-2-carboxamide]"
7.59 nM,,67.6 nM,5.89 nM,5.25 nM,38.9 nM,"COc1cnc(C(=O)Nc2ccc(F)c([C@]3(C)C[C@@H](C(F)(F)F)CC(N)=N3)c2)cn1 [Compound 9, N-{3-[(2S,4R)-6-amino-2-methyl-4-(trifluoromethyl)-4,5-dihydro-3H-pyridin-2-yl]-4-fluoro-phenyl]-5-methoxy-pyrazine-2-carboxamide]"
2.63 nM,,4.07 nM,2 nM,2.34 nM,30.9 nM,C[C@@]1(c2cc(NC(=O)c3ccc(Cl)cn3)ccc2F)C[C@@H](C(F)(F)F)CC(N)=N1 [Compound 11]
15.5 nM,199.22 °C,10.7 nM,7.76 nM,7.59 nM,51.3 nM,C[C@@]1(c2cc(NC(=O)c3ccc(F)cn3)ccc2F)C[C@@H](C(F)(F)F)CC(N)=N1 [Compound 12]
776 nM,165.48 °C,> 10000 nM,,347 nM,,"COCCOc1cnc(C(=O)Nc2ccc(F)c([C@@]3(C)N=C(N)C[C@H]3C(F)(F)F)c2)cn1 (relative stereo) [Compound 23, (±)-N-[3-[(2S*,3R*)-5-amino-2-methyl-3-(trifluoromethyl)-3,4-dihydropyrrol-2-yl]-4-fluoro-phenyl]-5-(2-methoxyethoxy)pyrazine-2-carboxamide]"
490 nM,240.62 °C,912 nM,129 nM,100 nM,,"CC1(c2cc(NC(=O)c3ccc(Cl)cn3)ccc2F)N=C(N)CC1C(F)(F)F (racemic) [Compound 15, (±)-N-(3-((2S*,3R*)-5-amino-2-methyl-3-(trifluoromethyl)-3,4-dihydro-2H-pyrrol-2-yl)-4-fluorophenyl)-5-chloropicolinamide]"
25.1 nM,171.93 °C,339 nM,8.71 nM,9.55 nM,31.6 nM,"COc1cnc(C(=O)Nc2cccc([C@]3(C)C[C@@H](C(F)(F)F)CC(N)=N3)c2)cn1 [Compound 3, N-{3-[(2S,4R)-6-amino-2-methyl-4-(trifluoromethyl)-2,3,4,5-tetrahydropyridin-2-yl]phenyl}-5-methoxypyrazine-2-carboxamide]"
2400 nM,184.2 °C,933 nM,,389 nM,,"COc1cccnc1Nc1ccc(F)c(C2(C)N=C(N)CC2C(F)(F)F)c1 (racemic) [Compound 21, (+)-N-[3-[(2S*,3R*)-5-amino-2-methyl-3-(trifluoromethyl)-3,4-dihydropyrrol-2-yl]-4-fluoro-phenyl]-3-methoxy-pyridin-2-amine]"
> 10000 nM,,> 10000 nM,3980 nM,4270 nM,18200 nM,"C[C@@]1(c2cccc(-c3cncnc3)c2)C[C@H](C(F)(F)F)CC(N)=N1 [Compound 2, (4S,6S)-6-methyl-6-(3-pyrimidin-5-ylphenyl)-4-(trifluoromethyl)-3,4,5,6-tetrahydropyridin-2-amine]"
